Activity calls are given as the source filed them. Where only a bound is given, the exact number is not on record here.

Assay [1] is described as follows: LGR2 antagonists, dose response, cell-based, HEK293, CRE-luciferase reporter, cherry pick, set 2 (AID 743343).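 Note: transfected cells were stimulated with diluted bursicon conditioned medium after compound addition.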 It is filed as functional.
Assay [2] can be described thus: HEK293 cell cytotoxicity, dose response, cytotoxicity control, plate reader, cherry-picked samples (AID 743446). It is filed as functional, cell-based.
Assay [3] is described as follows: HepG2 cell cytotoxicity, dose response, cytotoxicity control, plate reader, cherry-pick, antagonist series (AID 743416). It is filed as functional, cell-based.
Assay [4] is described as follows: MC4R antagonists, dose response, counter-screen for LGR2 antagonist project, cell-based, plate reader, cherry pick (AID 743444).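 Note: transfected HEK 293 cells stimulated with alpha-MSH peptide; potency of inhibitors of the alpha-MSH evoked signal.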 It is filed as functional. For orientation: A counterscreen serves to expose hits that act by an unwanted route or on another target.
The target in assay [5] is T1, Fructose-bisphosphate aldolase (Mycobacterium tuberculosis, UniProt P9WQA3).
T1 sequence (P9WQA3 whole entry): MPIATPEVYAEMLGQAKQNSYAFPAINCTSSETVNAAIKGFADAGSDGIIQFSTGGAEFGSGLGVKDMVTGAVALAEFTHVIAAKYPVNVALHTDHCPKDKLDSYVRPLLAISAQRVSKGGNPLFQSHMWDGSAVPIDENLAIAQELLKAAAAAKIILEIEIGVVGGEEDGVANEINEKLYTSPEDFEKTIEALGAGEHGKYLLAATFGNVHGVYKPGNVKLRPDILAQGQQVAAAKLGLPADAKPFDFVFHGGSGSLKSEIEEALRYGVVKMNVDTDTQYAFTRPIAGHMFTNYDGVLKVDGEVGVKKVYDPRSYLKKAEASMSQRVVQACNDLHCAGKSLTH
Put plainly: Fluorescence-based biochemical high throughput dose response assay for inhibitors of the fructose-bisphosphate aldolase (FBA) of M. tuberculosis. It is filed as functional.

In assay [6] the test system is Streptococcus sp. 'group A'. Nature of the assay: growth inhibition of control SK(-) GAS strain, dose response, counter-screen for streptokinase expression inhibitor project, luminescence, kanamycin, BacTiterGlo, confirmation (AID 1900). It is filed as functional, organism-based.
The nature of assay [7]: Artemis endonuclease inhibitor potency, dose response, biochemical, fluorescence intensity (AID 720701).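 Note: Artemis endonuclease enzyme.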 It is filed as functional.
In another assay the test system is Streptococcus. Nature of the assay: Group A Streptococcus viability loss, dose response, counter-screen for streptokinase expression inhibitor project, luminescence, BacTiterGlo (AID 1915).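 Note: potency for reduction of bacterial viability or growth.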 It is filed as functional, organism-based.
Assay [8] addresses T2, RNA-editing ligase 1, mitochondrial (Trypanosoma brucei brucei, UniProt P86926).
T2 sequence (P86926 whole entry): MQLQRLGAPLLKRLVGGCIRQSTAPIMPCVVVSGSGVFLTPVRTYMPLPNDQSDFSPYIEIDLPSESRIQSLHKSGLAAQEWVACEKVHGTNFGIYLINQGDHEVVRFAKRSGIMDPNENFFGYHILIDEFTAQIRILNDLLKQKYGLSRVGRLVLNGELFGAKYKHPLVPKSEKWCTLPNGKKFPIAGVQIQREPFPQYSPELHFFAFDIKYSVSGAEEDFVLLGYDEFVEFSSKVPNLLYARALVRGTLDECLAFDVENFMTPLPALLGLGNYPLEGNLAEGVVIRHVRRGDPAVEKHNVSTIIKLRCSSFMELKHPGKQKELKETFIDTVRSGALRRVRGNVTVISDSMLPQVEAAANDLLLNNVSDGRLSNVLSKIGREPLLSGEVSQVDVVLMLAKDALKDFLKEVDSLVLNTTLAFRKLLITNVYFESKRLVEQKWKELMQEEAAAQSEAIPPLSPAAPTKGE
Nature of the assay: TbREL1 ligase inhibitors, dose response, biochemical, fluorescence, Trypanosoma brucei (AID 1117295). It is filed as functional.

The target in the next assay is T3, fMet-Leu-Phe receptor (Homo sapiens, UniProt P21462).
T3 sequence (P21462 whole entry): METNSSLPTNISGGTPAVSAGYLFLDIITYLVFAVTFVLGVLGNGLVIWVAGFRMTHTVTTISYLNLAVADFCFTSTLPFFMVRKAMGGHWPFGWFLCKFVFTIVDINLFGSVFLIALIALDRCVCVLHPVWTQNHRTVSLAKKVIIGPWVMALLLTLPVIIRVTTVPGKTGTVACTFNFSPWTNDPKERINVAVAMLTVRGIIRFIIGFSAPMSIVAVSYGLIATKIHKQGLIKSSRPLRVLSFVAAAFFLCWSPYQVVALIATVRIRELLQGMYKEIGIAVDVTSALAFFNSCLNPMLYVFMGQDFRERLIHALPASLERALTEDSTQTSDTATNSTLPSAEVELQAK
Nature of the assay: FPR ligands, dose response (AID 519). It is filed as functional.

Assay [9] is described as follows: P. falciparum Dd2 growth inhibitors, dose response, SYBR Green, cherry-picked samples (AID 1159567). It is filed as functional, cell-based.
Assay [10] can be described thus: HepG2 cell cytotoxicity, dose response, cytotoxicity control, cherry-picked samples (AID 1159577). It is filed as functional, cell-based.
Assay [11] can be described thus: Counterscreen for activators of the function of SWI/SNF related, matrix associated, actin dependent regulator of chromatin, subfamily a, member 2 (SMARCA2, BRM): Luminescence-based cell-based high throughput dose response assay to identify non-selective compounds using the VP16 reporter assay. It is filed as functional.
In assay [12] the target is SWI/SNF-related matrix-associated actin-dependent regulator of chromatin subfamily A member 2 (Homo sapiens, UniProt P51531). Put plainly: Luminescence-based cell-based high throughput dose response assay to identify activators of the function of SWI/SNF related, matrix associated, actin dependent regulator of chromatin, subfamily a, member 2 (SMARCA2, BRM). It is filed as functional.

The nature of assay [13]: ZM109 Env clade C HIV-1 fusion inhibitors, dose response, HeLa effector, CEM target cells, luciferase, cherry-pick (AID 652058). It is filed as functional, cell-based.
Assay [14] can be described thus: inhibitors of clade B AD8 Env fusion, dose response, cell-based, cherry-pick (AID 652062).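 Note: luciferase signal from cell-cell fusion driven by HIV-1 clade B AD8 Env; potency is for inhibitors of fusion seen as a drop in luminescence.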 It is filed as functional.
A short description of assay [15]: CEM21 lymphoblast cell cytotoxicity, dose response, cytotoxicity control for viral fusion inhibitor project, CellTiter-Glo luminescence, cherry-picked (AID 652042).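 Note: potency for signal decrease meaning cytotoxicity.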 It is filed as functional, cell-based. For orientation: In ATP-based viability assays light output follows the ATP content of the culture.
Assay [16] can be described thus: inhibitors of HIV Env-driven cell fusion, dose response, cherry-pick (AID 652057). It is filed as functional, cell-based.
Assay [17] in a line: C. albicans growth with fluconazole, confirmation, fluorescence, retest (AID 2467). It is filed as functional, cell-based.
A short description of assay [18]: NIH-3T3 fibroblast cytotoxicity, dose response, cytotoxicity control, cell-based, fluorescence, Alamar Blue, secondary assay (AID 2327).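 Note: NIH-3T3 mouse fibroblasts cultured with fluconazole at 8 µg/mL.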 It is filed as functional. In general terms: Alamar Blue is a resazurin reagent that responds to reducing activity.
The test system of a further assay is HEK293. Put plainly: inhibitors of LMP1-driven NF-kB reporter, dose response, cell-based, HEK293, luciferase, cherry-pick (AID 588343). It is filed as functional. As to conditions: Homo sapiens.
A short description of assay [19]: cytotoxicity in OVCAR8 ovarian cancer cells, dose response, PAX8 project, cell-based, plate reader, dry powder samples (AID 743197). It is filed as functional. Particulars: OVCAR-8.
A short description of assay [20]: NIH:OVCAR-3 ovarian cancer cell cytotoxicity, dose response, PAX8 inhibitor project, plate reader, dry powder samples (AID 743044). It is filed as functional, cell-based.
Another assay concerns the target Paired box protein Pax-8 (Homo sapiens, UniProt Q06710). Nature of the assay: inhibitors of PAX8-driven TPO luciferase reporter, dose response, RMG-I cells, cherry-pick (AID 687027).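 Note: luciferase reporter driven by Pax8 target thyroperoxidase promoter measured by SteadyGlo luminescence.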 It is filed as functional, cell-based.
Assay [21] is described as follows: A2780 ovarian cancer cell cytotoxicity, dose response, cytotoxicity control, plate reader, dry powder samples (AID 743046). It is filed as functional, cell-based.
A short description of assay [22]: A549 cell cytotoxicity, dose response, cytotoxicity control, plate reader, cherry-pick, antagonist series (AID 743412). It is filed as functional, cell-based.
Another assay has as its target Cytochrome P450 2C19 (Homo sapiens, UniProt P33261). Nature of the assay: Cytochrome panel assay with activity outcomes. Panel member name: p450-cyp2c19 Compounds with AC50 equal or less than 10 uM are considered active. It is filed as functional. Particulars: read-out: AC50.

Chain of Paired box protein Pax-8 (Q06710 whole entry): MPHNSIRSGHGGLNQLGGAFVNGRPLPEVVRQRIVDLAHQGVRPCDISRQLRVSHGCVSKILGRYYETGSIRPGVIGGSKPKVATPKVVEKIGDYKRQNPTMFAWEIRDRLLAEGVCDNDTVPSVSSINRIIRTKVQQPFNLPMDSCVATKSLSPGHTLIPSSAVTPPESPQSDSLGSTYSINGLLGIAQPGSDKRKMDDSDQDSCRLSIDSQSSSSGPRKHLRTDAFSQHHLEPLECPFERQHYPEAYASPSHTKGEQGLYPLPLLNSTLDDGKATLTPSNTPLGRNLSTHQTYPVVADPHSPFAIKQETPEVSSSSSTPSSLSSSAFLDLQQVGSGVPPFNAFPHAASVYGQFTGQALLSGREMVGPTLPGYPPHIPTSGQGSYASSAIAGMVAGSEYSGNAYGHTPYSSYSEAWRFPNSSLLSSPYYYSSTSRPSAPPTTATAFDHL
Chain of Cytochrome P450 2C19 (P33261 whole entry): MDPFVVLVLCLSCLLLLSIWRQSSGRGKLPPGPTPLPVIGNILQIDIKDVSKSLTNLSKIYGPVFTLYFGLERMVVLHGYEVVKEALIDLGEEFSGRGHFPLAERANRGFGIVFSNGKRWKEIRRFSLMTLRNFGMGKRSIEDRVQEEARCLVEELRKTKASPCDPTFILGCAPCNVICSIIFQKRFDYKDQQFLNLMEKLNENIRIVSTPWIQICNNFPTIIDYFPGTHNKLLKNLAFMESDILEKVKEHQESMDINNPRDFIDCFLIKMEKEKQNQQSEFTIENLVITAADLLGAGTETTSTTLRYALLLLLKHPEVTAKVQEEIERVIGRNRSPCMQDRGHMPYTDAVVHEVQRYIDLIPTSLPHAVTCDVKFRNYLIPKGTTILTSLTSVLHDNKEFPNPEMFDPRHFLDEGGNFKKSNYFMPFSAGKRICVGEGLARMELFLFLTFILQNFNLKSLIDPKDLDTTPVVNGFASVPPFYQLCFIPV
Chain of SWI/SNF-related matrix-associated actin-dependent regulator of chromatin subfamily A member 2 (P51531 whole entry): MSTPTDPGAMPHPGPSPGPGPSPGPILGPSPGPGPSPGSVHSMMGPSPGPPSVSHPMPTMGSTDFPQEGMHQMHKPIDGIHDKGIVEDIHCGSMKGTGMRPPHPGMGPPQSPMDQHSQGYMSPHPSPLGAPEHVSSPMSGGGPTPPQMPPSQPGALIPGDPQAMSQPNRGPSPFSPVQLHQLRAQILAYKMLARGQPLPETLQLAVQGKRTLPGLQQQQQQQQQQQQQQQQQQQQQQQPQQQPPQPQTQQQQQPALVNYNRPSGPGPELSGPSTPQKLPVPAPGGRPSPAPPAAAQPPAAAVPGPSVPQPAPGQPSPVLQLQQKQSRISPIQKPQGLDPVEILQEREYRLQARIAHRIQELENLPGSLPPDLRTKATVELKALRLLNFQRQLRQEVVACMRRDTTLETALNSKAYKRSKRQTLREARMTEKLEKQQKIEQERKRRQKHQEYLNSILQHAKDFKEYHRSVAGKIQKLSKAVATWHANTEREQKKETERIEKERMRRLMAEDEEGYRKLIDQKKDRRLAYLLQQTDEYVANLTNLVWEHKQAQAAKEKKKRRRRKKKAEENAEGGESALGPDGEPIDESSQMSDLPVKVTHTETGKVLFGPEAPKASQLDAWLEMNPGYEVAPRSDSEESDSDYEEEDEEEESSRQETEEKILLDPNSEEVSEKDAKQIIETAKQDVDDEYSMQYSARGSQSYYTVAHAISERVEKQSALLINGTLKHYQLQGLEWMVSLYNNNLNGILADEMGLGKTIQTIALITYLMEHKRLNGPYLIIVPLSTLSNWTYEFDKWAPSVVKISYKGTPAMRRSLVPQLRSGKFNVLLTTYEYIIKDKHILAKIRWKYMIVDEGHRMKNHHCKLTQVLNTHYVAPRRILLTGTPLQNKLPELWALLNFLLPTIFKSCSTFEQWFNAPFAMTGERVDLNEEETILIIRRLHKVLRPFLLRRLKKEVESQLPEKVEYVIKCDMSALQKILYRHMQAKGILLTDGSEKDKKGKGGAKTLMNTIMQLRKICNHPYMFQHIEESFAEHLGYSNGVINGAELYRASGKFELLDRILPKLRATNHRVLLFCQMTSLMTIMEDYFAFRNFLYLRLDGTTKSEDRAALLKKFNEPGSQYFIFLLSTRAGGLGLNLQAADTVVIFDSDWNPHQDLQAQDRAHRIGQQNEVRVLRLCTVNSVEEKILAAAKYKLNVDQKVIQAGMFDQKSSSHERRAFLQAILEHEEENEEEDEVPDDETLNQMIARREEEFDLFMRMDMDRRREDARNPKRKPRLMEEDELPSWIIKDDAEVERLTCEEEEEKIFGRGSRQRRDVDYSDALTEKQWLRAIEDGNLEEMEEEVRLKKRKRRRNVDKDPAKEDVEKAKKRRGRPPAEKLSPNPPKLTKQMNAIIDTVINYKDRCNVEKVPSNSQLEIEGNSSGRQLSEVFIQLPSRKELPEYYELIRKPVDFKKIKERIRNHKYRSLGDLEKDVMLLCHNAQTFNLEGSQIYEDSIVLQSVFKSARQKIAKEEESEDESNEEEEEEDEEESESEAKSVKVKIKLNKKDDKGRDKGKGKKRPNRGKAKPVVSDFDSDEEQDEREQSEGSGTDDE

Broadly, the AC50 is the concentration giving half of the maximal activity seen. On to `COc1ccc(-n2ncc3c(N4CCC(C)CC4)ncnc32)cc1`, for which the AC50 in assay [1] was 11.6 µM (active); in assay [2], > 52 µM (inactive); in assay [3], > 52 µM (inactive); in [4], 19.3 µM (active).

As usually defined, the IC50 is the point on the concentration scale where inhibition reaches its midpoint. With `CC(=O)N1CCN(C(=O)c2cc(-c3ccc(Cl)s3)nc3ccccc23)CC1`, in [5], the IC50 is 1.17 µM (active).

Broadly, the EC50 is the concentration needed to bring the measured effect to its halfway point. Regarding `CC(C)Cn1c2c(c(O)c(C(=O)Nc3ncccc3O)c1=O)CCCC2`, the figures for the EC50 (in assay [6]; in the assay with Streptococcus) were 2.97 µM (active) and 3.34 µM (active), respectively. Further, the IC50 in [7] is 16.3 µM (active).

`COc1ccc2c(CN3CCCC3)cc(=O)oc2c1`: the IC50 in assay [5] was 2.52 µM (active).

`COC(=O)C1=C(C)N(Cc2ccc(C(F)(F)F)cc2)C(NCc2ccccc2C(F)(F)F)=NC1c1ccccc1C(F)(F)F` (centres undefined): the IC50 in assay [8] is > 96.6 µM (inactive).

The Ki is the dissociation constant of the complex between target and ligand, obtained from inhibition or displacement. As to `COc1ccc(NC(=O)C(c2ccc(C)cc2)N(C)C(=O)c2cnccn2)cc1` (centres undefined), at fMet-Leu-Phe receptor, the Ki is > 66.7 µM (inactive).

As for `O=[N+]([O-])c1ccccc1/C=C/C=N/n1c(S)nnc1-c1ccc(Cl)cc1`, the IC50 in [7] is > 20 µM (inactive).

Turning to `CN(C)CC(=O)N1C[C@@H]2N[C@H](C1)[C@H]2c1ccc(/C=C/c2ccccc2)cc1`, the results for the AC50 in assay [9] and in assay [10] were 2.63 µM (active) and 11.4 µM (active), respectively.

In the case of `O=C(CNCc1c(F)cccc1F)N1CCC2(CC1)OCCO2`, the EC50 in [11] and in assay [12] was > 91.3 µM (inactive) throughout.

For `Nc1ncc2c(n1)-c1ccccc1CC2`, the IC50 in assay [5] is 1.53 µM (active).

For the compound `COc1cccc(S(=O)(=O)N(C)C[C@H]2Oc3cc(C4=CCCC4)ccc3S(=O)(=O)N([C@@H](C)CO)C[C@H]2C)c1`, the AC50 in [13] is 1.62 µM (active); in assay [14], 3.01 µM (active); in [15], 64.2 µM (active); in assay [16], 1.87 µM (active).

As to `COCCN1C(=O)C(O)=C(C(=O)c2ccco2)C1c1cccc(Oc2ccccc2)c1` (centres undefined), the EC50 in assay [17] was 4.35 µM (active); in [18], > 150 µM (inactive). The Ki on fMet-Leu-Phe receptor is 56 µM (inactive).

With `COc1ccc(-c2[nH]ncc2-c2ccc3c(c2)OCCO3)c(O)c1`, the AC50 in assay [1] is 2.97 µM (active); in [2] it was > 52 µM (inactive); in the assay on HEK293, 1.78 µM (active); in assay [3] it was > 52 µM (inactive); in [4], 0.723 µM (active).

Turning to `C[C@@H]1CCCCO[C@H](CN(C)C(=O)C2CCCCC2)[C@H](C)CN([C@@H](C)CO)C(=O)c2cc(NS(=O)(=O)c3ccc(Cl)cc3)ccc2O1`, the AC50 in assay [19] is 56.9 µM (active); in [20], 45.3 µM (active); on Paired box protein Pax-8, 10.8 µM (active); in assay [21] it was 43.4 µM (active).

For `Cn1nnnc1Sc1ncnc2scc(-c3ccc([N+](=O)[O-])cc3)c12`, the AC50 in assay [22] was 6.71 µM (active); at Paired box protein Pax-8, 2.57 µM (active); in assay [1], 6.25 µM (active); in assay [2] it was 6.48 µM (active); in [3] it was 7.05 µM (active); in assay [4] it was 5.32 µM (active).

`COC(=O)C1=C(C)N(Cc2ccc(C(F)(F)F)cc2)C(NCc2ccccc2C(F)(F)F)=NC1c1ccccc1` (centres undefined): the IC50 in assay [8] was > 96.6 µM (inactive).

Take `COCC(=O)N1CCC2(CC1)CN(Cc1ccccc1F)[C@H](CO)c1[nH]c3cc(OC)ccc3c12`: the figures for the AC50 in [9] and in assay [10] were 7.02 µM (active) and > 39 µM (inactive), respectively.

In the case of `COc1ccc(C2C(C(=O)c3ccccc3)=C(O)C(=O)N2CC(C)O)c(OC)c1` (centres undefined), the AC50 on Cytochrome P450 2C19 is 6.31 µM (inconclusive). In addition, the Ki at fMet-Leu-Phe receptor is 38.6 µM (inactive).

The values above are taken from ChEMBL document CHEMBL1201862, “PubChem BioAssay data set” (2004).
